From patent US20080161395A1, “Derivatives of Aminobutanoic Acid Inhibiting Cpt” (SIGMA-TAU INDUSTRIE FARMACEUTICHE RIUNITE S.P.A., priority 2005, published 2008)
pIC50: −log10 of the molar value.

What was measured:
CPT1 heart = biological target: T1, CPT1 heart (Rattus norvegicus, UniProt Q63704); assay: Inhibition of CPT in fresh rat heart mitochondrial preparations; format: biochemical, Fischer rats; details: rat heart mitochondria, 50 μM [14C]palmitoyl-CoA, 10 mM L-carnitine, 37° C., 1 minute
T1 construct: fresh mitochondrial preparations obtained from the liver or heart of Fischer rats; from tissue; host or cells: heart mitochondria of Fischer rats
T1 sequence (Q63704 1-772): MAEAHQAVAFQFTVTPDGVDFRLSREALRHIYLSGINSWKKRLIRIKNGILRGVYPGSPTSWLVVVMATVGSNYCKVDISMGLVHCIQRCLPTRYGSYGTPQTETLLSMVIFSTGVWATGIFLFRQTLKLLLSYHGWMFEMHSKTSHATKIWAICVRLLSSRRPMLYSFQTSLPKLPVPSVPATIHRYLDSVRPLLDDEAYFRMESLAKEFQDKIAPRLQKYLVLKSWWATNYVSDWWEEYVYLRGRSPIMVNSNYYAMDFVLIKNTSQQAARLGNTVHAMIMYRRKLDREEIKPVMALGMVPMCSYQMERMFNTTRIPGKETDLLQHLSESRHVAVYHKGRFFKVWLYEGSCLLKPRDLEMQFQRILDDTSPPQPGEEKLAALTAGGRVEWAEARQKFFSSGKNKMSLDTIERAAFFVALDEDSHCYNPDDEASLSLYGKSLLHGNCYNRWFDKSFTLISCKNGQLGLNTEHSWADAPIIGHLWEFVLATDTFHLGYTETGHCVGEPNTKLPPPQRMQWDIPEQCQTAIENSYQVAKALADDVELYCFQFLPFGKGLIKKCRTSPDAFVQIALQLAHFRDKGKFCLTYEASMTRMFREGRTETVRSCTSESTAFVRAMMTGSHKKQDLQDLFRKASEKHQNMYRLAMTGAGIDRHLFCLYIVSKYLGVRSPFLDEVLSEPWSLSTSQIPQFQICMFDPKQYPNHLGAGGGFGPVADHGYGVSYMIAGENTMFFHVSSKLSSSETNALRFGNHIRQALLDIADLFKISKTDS
Experimental: The inhibition of CPT was evaluated on fresh mitochondrial preparations obtained from the liver or heart of Fischer rats, fed normally; the mitochondria taken from the liver or heart are suspended in a 75 mM sucrose buffer, EGTA 1 mM, pH 7.5. 100 μl of a mitochondrial suspension, containing 50 μM of [^14C] palmitoyl-CoA (spec.act. 10000 dpm/mole) and 10 mM of L-carnitine, are incubated at 37° C. in the presence of stepped concentrations (0-3 mM) of product under examination.
(§1) The IC50 is then determined.

CPT1 liver = biological target: T2, CPT1 liver (Rattus norvegicus, UniProt P32198); assay: Inhibition of CPT in fresh rat liver mitochondrial preparations; format: biochemical, Fischer rats; details: rat liver mitochondria, 50 μM [14C]palmitoyl-CoA, 10 mM L-carnitine, 37° C., 1 minute
T2 construct: fresh mitochondrial preparations obtained from the liver or heart of Fischer rats; from tissue; host or cells: liver mitochondria of Fischer rats
T2 sequence (P32198 1-773): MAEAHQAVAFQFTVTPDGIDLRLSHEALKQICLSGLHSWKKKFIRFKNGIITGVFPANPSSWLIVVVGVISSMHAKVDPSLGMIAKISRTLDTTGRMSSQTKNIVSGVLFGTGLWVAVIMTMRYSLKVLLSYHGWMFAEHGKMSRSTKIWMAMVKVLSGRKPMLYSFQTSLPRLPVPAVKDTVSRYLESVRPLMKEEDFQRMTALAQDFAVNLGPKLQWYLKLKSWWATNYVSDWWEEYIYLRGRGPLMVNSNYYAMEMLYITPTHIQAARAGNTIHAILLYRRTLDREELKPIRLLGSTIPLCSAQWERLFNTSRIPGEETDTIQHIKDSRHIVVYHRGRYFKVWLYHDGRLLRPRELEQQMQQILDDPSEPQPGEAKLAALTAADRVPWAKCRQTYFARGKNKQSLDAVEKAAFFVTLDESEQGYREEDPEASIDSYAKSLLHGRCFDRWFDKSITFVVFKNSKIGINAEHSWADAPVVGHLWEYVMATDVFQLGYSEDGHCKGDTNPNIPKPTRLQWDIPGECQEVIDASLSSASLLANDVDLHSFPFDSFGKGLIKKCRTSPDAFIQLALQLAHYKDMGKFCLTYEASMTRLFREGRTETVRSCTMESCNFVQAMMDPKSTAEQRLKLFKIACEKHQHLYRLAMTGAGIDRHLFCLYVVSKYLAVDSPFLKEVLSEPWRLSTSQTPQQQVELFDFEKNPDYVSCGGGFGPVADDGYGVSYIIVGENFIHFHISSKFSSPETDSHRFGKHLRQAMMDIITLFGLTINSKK
Experimental: 100 μl of a mitochondrial suspension, containing 50 μM of [^14C] palmitoyl-CoA (spec.act. 10000 dpm/mole) and 10 mM of L-carnitine, are incubated at 37° C. in the presence of stepped concentrations (0-3 mM) of product under examination.
as §1

[1] = tested on: CPT-1 in the hypothalamus; details: intracerebroventricular (icv) administration; Nature Medicine, 2003, 9(6), 756-761; cited from earlier work

SMILES	pIC50 (CPT1 heart)	pIC50 (CPT1 liver)	food intake and gluconeogenesis [1]
CCCCCCCCCCCCCCNC(=O)N[C@H](CC(=O)[O-])C[N+](C)(C)C [ST1326, R-4-trimethyl ammonium-3-(tetradecylcarbamoyl)-aminobutyrate]	4.31	6.44	significantly and consistently reducing
CCCCCCCCCCCCCCNC(=O)N[C@H](CC(=O)O)CN(C)C [ST2837, (R)-4-(dimethylamino)-3-(tetradecylcarbamoyl)-amino-butyric Acid]	4.15	5.24	–
